Source: patent publication EP3262036B1, “THERAPEUTIC PYRIDAZINE COMPOUNDS AND USES THEREOF” (priority 2015, dated 2016)
Structures can show the parent of a compound that is named as a salt.

Target: BRG1 (Homo sapiens, UniProt P51532)
Experiment: biochemical
Type: binding
Details: BRG1 HTRF IC50 (µM)
Excerpt: IC50 measurements for inhibitors using BRG1 TR-FRET Binding Assay

Sequence of BRG1 (P51532 1448-1575): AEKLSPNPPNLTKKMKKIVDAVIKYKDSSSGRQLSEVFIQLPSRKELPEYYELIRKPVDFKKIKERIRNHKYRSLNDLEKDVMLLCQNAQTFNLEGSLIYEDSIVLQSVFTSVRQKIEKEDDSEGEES

| SMILES | IC50 [µM] |
| --- | --- |
| Nc1nnc(-c2ccccc2O)cc1N1CCN(C(=O)c2cncs2)C(CO)C1 (stereo not drawn) [Example 143, (4-(3-amino-6-(2-hydroxyphenyl)pyridazin-4-yl)-2-(hydroxymethyl)piperazin-1-yl)(thiazol-5-yl)methanone] | 0.0206 |
| C[C@@H]1CN(c2cc(-c3ccccc3O)nnc2N)CCN1C(=O)C(C)(C)O [Example 145, (R)-1-(4-(3-amino-6-(2-hydroxyphenyl)pyridazin-4-yl)-2-methylpiperazin-1-yl)-2-hydroxy-2-methylpropan-1-one] | 0.0642 |
| C[C@H]1CN(c2cc(-c3ccccc3O)nnc2N)CCN1C(=O)C(C)(C)O [Example 146, (S)-1-(4-(3-amino-6-(2-hydroxyphenyl)pyridazin-4-yl)-2-methylpiperazin-1-yl)-2-hydroxy-2-methylpropan-1-one] | 0.0458 |
| CNC(=O)CN1CCN(c2cc(-c3ccccc3O)nnc2N)C[C@H]1C [Example 148, (R)-2-(4-(3-amino-6-(2-hydroxyphenyl)pyridazin-4-yl)-2-methylpiperazin-1-yl)-N-methylacetamide] | 0.0613 |
| C[C@H]1CN(c2cc(-c3ccccc3O)nnc2N)CCN1C(=O)c1cccnc1 [Example 155] | 0.166 |
| C[C@@H]1CN(c2cc(-c3ccccc3O)nnc2N)CCN1C(=O)c1cccnc1 [Example 156] | 0.0435 |
| CC(C)[C@H](N)C(=O)N1CCN(c2cc(-c3ccccc3O)nnc2N)C[C@H]1C [Example 157, 2-Amino-1-((R)-4-(3-amino-6-(2-hydroxyphenyl)pvridazin-4-yl)-2-methylpiperazin-1-yl)-3-methylbutan-1-one] | 0.0296 |
| CC(C)[C@H](N)C(=O)N1CCN(c2cc(-c3ccccc3O)nnc2N)C[C@@H]1C [Example 158, 2-Amino-1-((R)-4-(3-amino-6-(2-hydroxyphenyl)pvridazin-4-yl)-2-methylpiperazin-1-yl)-3-methylbutan-1-one] | 0.113 |
| CC1CN(c2cc(-c3ccccc3O)nnc2N)CCN1C(=O)CN(C)C (stereo not drawn) [Example 162, 1-(4-(3-amino-6-(2-hydroxyphenyl)pyridazin-4-yl)-2-methylpiperazin-1-yl)-2-(dimethylamino)ethanone] | 0.0586 |
| CC(Oc1cc(-c2ccccc2O)nnc1N)C(C)(C)C (stereo not drawn) [Example 164, 2-(6-amino-5-((3,3-dimethylbutan-2-yl)oxy)pyridazin-3-yl)phenol] | 0.143 |
| Nc1nnc(-c2ccccc2O)cc1O[C@H]1CCCC[C@@H]1c1ccccc1 [Example 165, 2-(6-amino-5-(((1,2-trans)-2-phenylcyclohexyl)oxy)pyridazin-3-yl)phenol] | 0.977 |
| C[C@@H](Oc1cc(-c2ccccc2O)nnc1N)c1cccnc1 [Example 166, (R)-2-(6-amino-5-(1-(pyridin-3-yl)ethoxy)pyridazin-3-yl)phenol] | 0.132 |
| C[C@H](Oc1cc(-c2ccccc2O)nnc1N)c1cccnc1 [Example 167, (S)-2-(6-amino-5-(1-(pyridin-3-yl)ethoxy)pyridazin-3-yl)phenol] | 0.0251 |
| CC(Oc1cc(-c2ccccc2O)nnc1N)c1cccnc1 (stereo not drawn) [Example 171, 2-(6-amino-5-(1-(pyridin-3-yl)ethoxy)pyridazin-3-yl)phenol] | 0.0792 |
| CN1CCC(Oc2cc(-c3ccccc3O)nnc2N)CC1 [Example 172, 2-(6-amino-5-((1-methylpiperidin-4-yl)oxy)pyridazin-3-yl)phenol] | 0.161 |
| CN(C)CCCOc1cc(-c2ccccc2O)nnc1N [Example 175, 2-(6-amino-5-(3-(dimethylamino)propoxy)pyridazin-3-yl)phenol] | 0.117 |
| Nc1nnc(-c2ccccc2O)cc1OC1CCCC1 [Example 176, 2-(6-amino-5-(cyclopentyloxy)pyridazin-3-yl)phenol] | 0.0371 |
| Nc1nnc(-c2ccccc2O)cc1OC1CCCCC1 [Example 179, 2-(6-amino-5-(cyclohexyloxy)pyridazin-3-yl)phenol] | 0.0451 |
| Nc1nnc(-c2ccccc2O)cc1OC1CCCN(Cc2ccccc2)C1 (stereo not drawn) [Example 181, 2-(6-amino-5-((1-benzylpiperidin-3-yl)oxy)pyridazin-3-yl)phenol] | 0.0337 |
| Nc1nnc(-c2ccccc2O)cc1OC1CCc2ccccc21 (stereo not drawn) [Example 182, 2-(6-amino-5-((2,3-dihydro-1H-inden-1-yl)oxy)pyridazin-3-yl)phenol] | 0.606 |
| Nc1nnc(-c2ccccc2O)cc1OC1CCCN(c2ccccc2)C1 (stereo not drawn) [Example 183, 2-(6-amino-5-((1-phenylpiperidin-3-yl)oxy)pyridazin-3-yl)phenol] | 0.0172 |
| Nc1nnc(-c2ccccc2O)cc1OC1CCN(c2ccccc2)C1 (stereo not drawn) [Example 184, 2-(6-amino-5-((1-phenylpyrrolidin-3-yl)oxy)pyridazin-3-yl)phenol] | 0.192 |
| Nc1nnc(-c2ccccc2O)cc1OC1CCCN(C(=O)c2ccccc2)C1 (stereo not drawn) [Example 185, (3-((3-amino-6-(2-hydroxyphenyl)pyridazin-4-yl)oxy)piperidin-1-yl)(phenyl)methanone] | 0.641 |
| Nc1nnc(-c2ccccc2O)cc1C1CC1 [Example 190, 2-(6-amino-5-cyclopropylpyridazin-3 - yl)phenol] | 0.0176 |
| Cn1nccc1-c1cc(-c2ccccc2O)nnc1N [Example 193, 2-(6-amino-5-(1-methyl-1H-pyrazol-5-yl)pyridazin-3-yl)phenol] | 1.08 |
| CC(C(=O)N(C)C)n1cc(-c2cc(-c3ccccc3O)nnc2N)cn1 (stereo not drawn) [Example 194, 2-(4-(3-amino-6-(2-hydroxyphenyl)pyridazin-4-yl)-1 H-pyrazol-1-yl)-N,N-dimethylpropanamide] | 0.0247 |
| C[C@H](C(=O)N(C)C)n1cc(-c2cc(-c3ccccc3O)nnc2N)cn1 [Example 195, 2-(4-(3-Amino-6-(2-hvdroxyphenyl)pyridazin-4-vl)-1H-pvrazol-1-yl)-N,N-dimethylpropanamide] | 0.0217 |
| Nc1nnc(-c2ccccc2O)cc1C1=CCN(Cc2ccccc2)CC1 [Example 223, 2-(6-amino-5-(1-benzyl-1,2,3,6-tetrahydropyridin-4-yl)pyridazin-3-yl)phenol] | 0.0205 |

Second part, the molecule after the results:

| IC50 [µM] | SMILES |
| --- | --- |
| 0.0247 | C[C@@H](C(=O)N(C)C)n1cc(-c2cc(-c3ccccc3O)nnc2N)cn1 [Example 196, 2-(4-(3-Amino-6-(2-hvdroxyphenyl)pyridazin-4-vl)-1H-pvrazol-1-yl)-N,N-dimethylpropanamide] |
| 0.0339 | CC(C(=O)N(C)C)n1cnc(-c2cc(-c3ccccc3O)nnc2N)c1 (stereo not drawn) [Example 197, 2-(4-(3-amino-6-(2-hydroxyphenyl)pyridazin-4-yl)-1H-imidazol-1-yl)-N,N-dimethylpropanamide] |
| 0.335 | Nc1ccc(-c2ccccc2O)nn1 [Example 203, 2-(6-aminopyridazin-3-yl)phenol] |
| 1.08 | CC(=O)Nc1ccc(-c2ccccc2O)nn1 [Example 205, N-(6-(2-hydroxyphenyl)pyridazin-3-yl)acetamide] |
| 0.183 | CN1CCC(c2cc(-c3ccccc3O)nnc2N)CC1 [Example 211, 2-(6-amino-5-(1-methylpiperidin-4-yl)pyridazin-3-yl)phenol] |
| 0.0694 | CC(C)(C)OC(=O)N1CCC(c2cc(-c3ccccc3O)nnc2N)C1 (stereo not drawn) [Example 212, tert-butyl 3-(3-amino-6-(2-hydroxyphenyl)pyridazin-4-yl)pyrrolidine-1-carboxylate] |
| 0.0611 | Nc1nnc(-c2ccccc2O)cc1C1CCOCC1 [Example 213, 2-(6-amino-5-(tetrahydro-2H-pyran-4-yl)pyridazin-3-yl)phenol] |
| 0.112 | Nc1nnc(-c2ccccc2O)cc1C1CCCN(Cc2ccccc2)C1 (stereo not drawn) [Example 214, 2-[6-amino-5-(1-benzyl-3-piperidyl)pyridazin-3-yl]phenol] |
| 0.743 | Nc1nnc(-c2ccccc2O)cc1C1CCNC1 (stereo not drawn) [Example 215, 2-(6-amino-5-(pyrrolidin-3-yl)pyridazin-3-yl)phenol hydrochloride] |
| 0.765 | CN1CCC(c2cc(-c3ccccc3O)nnc2N)C1 (stereo not drawn) [Example 216, 2-(6-amino-5-(1-methylpyrrolidin-3-yl)pyridazin-3-yl)phenol 2,2,2-trifluoroacetate] |
| 0.36 | Cc1ccc(S(=O)(=O)N2CCC(c3cc(-c4ccccc4O)nnc3N)CC2)cc1 [Example 219, 2-(6-amino-5-(1-tosylpiperidin-4-yl)pyridazin-3-yl)phenol] |
| 0.0889 | Cc1ccc(S(=O)(=O)N2CC=C(c3cc(-c4ccccc4O)nnc3N)CC2)cc1 [Example 222, 2-(6-amino-5-(1-tosyl-1,2,3,6-tetrahydropyridin-4-yl)pyridazin-3-yl)phenol] |
| 0.0602 | Nc1nnc(-c2ccccc2O)cc1C1CCN(S(=O)(=O)c2ccccc2)CC1 [Example 224, 2-(6-amino-5-(1-(phenylsulfonyl)piperidin-4-yl)pyridazin-3-yl)phenol] |
| 0.0848 | CC(=O)N1CCC(c2cc(-c3ccccc3O)nnc2N)CC1 [Example 227, 1-(4-(3-amino-6-(2-hydroxyphenyl)pyridazin-4-yl)piperidin-1-yl)ethanone] |
| 0.0537 | CS(=O)(=O)N1CCC(c2cc(-c3ccccc3O)nnc2N)CC1 [Example 228, 2-(6-amino-5-(1-(methylsulfonyl)piperidin-4-yl)pyridazin-3-yl)phenol] |
| 0.0437 | CC(C)(O)C(=O)N1CCC(c2cc(-c3ccccc3O)nnc2N)CC1 [Example 229, 1-(4-(3-amino-6-(2-hydroxyphenyl)pyridazin-4-yl)piperidin-1-yl)-2-hydroxy-2-methylpropan-1-one] |
| 0.0549 | Nc1nnc(-c2cc(F)ccc2O)cc1-c1ccccc1 [Example 230, 2-(6-amino-5-phenylpyridazin-3-yl)-4-fluorophenol] |
| 0.995 | Nc1nnc(-c2ccc(F)cc2O)cc1-c1ccccc1 [Example 231, 2-(6-amino-5-phenylpyridazin-3-yl)-5-fluorophenol] |
| 0.176 | Nc1nnc(-c2cc(F)cc(F)c2O)cc1-c1ccccc1 [Example 232, 2-(6-amino-5-phenylpyridazin-3-yl)-4,6-difluorophenol] |
| 0.435 | Nc1nnc(-c2c(O)cccc2F)cc1-c1ccccc1 [Example 233, 2-(6-amino-5-phenylpyridazin-3-yl)-3-fluorophenol] |
